Paper PMC6445542 (Marmara pharmaceutical journal, 2013)

biological target: HCV NS5B RNA dependent RNA polymerase (NS5BCΔ21) (Hepatitis C virus genotype 1b, UniProt P26663); assay: HCV NS5B RdRp primer dependent elongation; type: biochemical; settings: not given

Row | Structure (SMILES) | IC50 [µM]
1 | CCCCNC(=S)NNC(=O)CC1(CC)OCCc2c1[nH]c1c(CC)cccc21 (centres unmarked) [Compound 3d, 1-[2-(1,8-Diethyl-1,3,4,9-tetrahydropyrano[3,4-b]indole-1-yl)acetyl]-4-butyl thiosemicarbazide] | 29.2 ± 1.4

same assay, conditions: read-out: % Inhibition (100 μM) of HCV NS5B RdRp activity

Row | Structure (SMILES) | inhibition at 100 µM [%]
2 | CCc1cccc2c3c([nH]c12)C(CC)(CC(=O)NNC(=S)NC1CCCCC1)OCC3 (centres unmarked) [Compound 3h, 1-[2-(1,8-Diethyl-1,3,4,9-tetrahydropyrano[3,4-b]indole-1-yl)acetyl]-4-cyclohexyl thiosemicarbazide] | 47.4 ± 0.9
3 | CCCNC(=S)NNC(=O)CC1(CC)OCCc2c1[nH]c1c(CC)cccc21 (centres unmarked) [Compound 3c, 1-[2-(1,8-Diethyl-1,3,4,9-tetrahydropyrano[3,4-b]indole-1-yl)acetyl]-4-propyl thiosemicarbazide] | 34.6 ± 1.1
4 | CCNC(=S)NNC(=O)CC1(CC)OCCc2c1[nH]c1c(CC)cccc21 (centres unmarked) [Compound 3b, 1-[2-(1,8-Diethyl-1,3,4,9-tetrahydropyrano[3,4-b]indole-1-yl)acetyl]-4-ethyl thiosemicarbazide] | 49.9 ± 0.3
5 | CCc1cccc2c3c([nH]c12)C(CC)(CC(=O)O)OCC3 (racemic) [Etodolac, (R,S) 2-[1,8-diethyl-1,3,4-tetrahydropyrano (3,4-b)indole-1-yl]acetic acid, reference compound] | ~10
6 | CCc1cccc2c3c([nH]c12)C(CC)(CC(=O)NNC(=S)Nc1ccccc1)OCC3 (centres unmarked) [Compound 3g, 1-[2-(1,8-Diethyl-1,3,4,9-tetrahydropyrano[3,4-b]indole-1-yl)acetyl]-4-phenyl thiosemicarbazide] | 38.9 ± 0.9
7 | CCc1cccc2c3c([nH]c12)C(CC)(CC(=O)NNC(=S)NCc1ccccc1)OCC3 (centres unmarked) [Compound 3f, 1-[2-(1,8-Diethyl-1,3,4,9-tetrahydropyrano[3,4-b]indole-1-yl)acetyl]-4-benzyl thiosemicarbazide] | 23.4 ± 1.8
8 | CCCCNC(=S)NNC(=O)CC1(CC)OCCc2c1[nH]c1c(CC)cccc21 (centres unmarked) [Compound 3d, 1-[2-(1,8-Diethyl-1,3,4,9-tetrahydropyrano[3,4-b]indole-1-yl)acetyl]-4-butyl thiosemicarbazide] | 68.7 ± 0.9
